The source of these data is patent US11969476B2, “Antibody molecule-drug conjugates and uses thereof” (priority 2020, dated 2024).

≈ marks a conversion by molar mass, not a printed value. Like-named read-outs stand apart in the source and are kept apart here. Square brackets hold non-standard residues; d marks the D form. Ends that are not written are not given here. Peptide text beside a SMILES is read from it. Bounds are passed on as bounds.

One data set can be described thus: in vitro. The note with it: human, Cytotox CC50.
The subject of a further data set is P. aeruginosa. Nature of the data set: MIC testing of antimicrobial peptides (screen). Format: cell-based. The note with it: in words. The text has this:
Initially, a bioinformatics-driven workflow (mine public database of AMPs (YADAMP)→cluster AMPs by properties→evaluate activity and toxicity) was utilized to select AMPs for experimental characterization to identify potent payloads with a high therapeutic index (FIG. 7A). […] To facilitate identification of AMPs for use in an ADC, a screening strategy that clustered peptides based on their underlying physicochemical properties was implemented, followed by characterization of representative members from each cluster. Here YADAMP, a database of AMPs that contains over 2,500 sequences of peptides with reported antibacterial activity, was used. Clustering was performed by utilizing a K-means algorithm using calculated properties that have been reported to be relevant to antimicrobial activity (peptide length, predicted helicity, predicted hydropathy, percentage of select amino acids [Lys, Arg, Trp, Cys, His], and charge at pH7, pH5, and pH9). […] Once potent peptides with favorable characteristics were identified, the remaining members of the corresponding clusters were then selected for experimental characterization. […]
Assessment of Antimicrobial Activity. […] After 18 hours the plates were read using a mirrored plate reader and reflected incandescent light. […] Wells at and above the MIC should appear void of growth when read by eye.

The subject of data set [1] is human red blood cells. Nature of the data set: Red blood cell hemolysis (MLC, PLC). Particulars: in words.
For a further data set, the system named is 293T. The data set is described as follows: Cytotoxicity to mammalian cells. The note with it: in words.
Another data set relates to Eco 25922. Nature of the data set: MIC determination (CLSI, 2-fold serial dilutions). Format: cell-based, E. coli. As to the method: (§1) Assessment of Antimicrobial Activity. […] All plates were placed at 37° C. overnight. After 18 hours the plates were read using a mirrored plate reader and reflected incandescent light. […] Wells at and above the MIC should appear void of growth when read by eye.

The subject of a further data set is Pae 27853. The data set is described as follows: MIC determination (CLSI, 2-fold serial dilutions). It counts as cell-based, Pseudomonas aeruginosa. The method, then:
as §1

Another data set deals with Pae 39324. Nature of the data set: MIC determination (CLSI, 2-fold serial dilutions). Format: cell-based, Pseudomonas aeruginosa. As to the method:
as §1

A short description of data set [2]: Cytotoxicity to mammalian cells. Particulars: human, 293T cells.
The subject of another data set is Sau 29213. Nature of the data set: MIC determination (CLSI, 2-fold serial dilutions). It counts as cell-based, S. Aureus. As to the method:
as §1

The conditions of data set [3]: in words, human serum.
Method: Assessment of Serum Stability. […] Twenty μl of each test article was placed in a 2.0 ml round bottom microfuge tube. […] Assay tubes were placed at 37° C. in a rotating rack between time-points. […] Supernatant from each tube was collected and frozen at −20° C. for analysis. Samples were harvested and processed at various time-points up to 6 hours.
Data set [4] concerns human red blood cells.
In the next data set the test system is P. aeruginosa BAA-2114. Further details: key: R = Resistant; S = Suspectible; I = Intermediate; NT = Note Tested. Particulars: strain BAA-2114, isolated from human sputum; cited from earlier work.
Data set [5] can be described thus: MIC in human serum (hsMIC) relative to MIC. Format: cell-based. The note with it: NA, no active in human serum.
Method: In an embodiment, the MIC is determined in the presence of phosphate-buffered saline (PBS). In an embodiment, the MIC or hsMIC is determined on per ADC basis. In an embodiment, the MIC or hsMIC is determined on per payload or antimicrobial peptide basis.
The subject of a further data set is P. aeruginosa BAA-2108. Further details: key: R = Resistant; S = Suspectible; I = Intermediate; NT = Note Tested. The note with it: strain BAA-2108, isolated from human sputum; cited from earlier work.
Another data set relates to P. aeruginosa BAA-2110. Further details: key: R = Resistant; S = Suspectible; I = Intermediate; NT = Note Tested. The note with it: strain BAA-2110, isolated from human sputum; cited from earlier work.
Another data set has as its system P. aeruginosa BAA-2111. Further details: key: R = Resistant; S = Suspectible; I = Intermediate; NT = Note Tested. Particulars: strain BAA-2111, isolated from human sputum; cited from earlier work.
The subject of a further data set is P. aeruginosa BAA-2109. Further details: key: R = Resistant; S = Suspectible; I = Intermediate; NT = Note Tested. Particulars: strain BAA-2109, isolated from human sputum; cited from earlier work.
The subject of a further data set is P. aeruginosa BAA-2113. Particulars: strain BAA-2113, isolated from human sputum; cited from earlier work.
In a further data set the test system is P. aeruginosa BAA-2112. On the set-up: key: R = Resistant; S = Suspectible; I = Intermediate; NT = Note Tested. The note with it: strain BAA-2112, isolated from human sputum; cited from earlier work.
A further data set deals with P. aeruginosa PA14. The data set is described as follows: Acute (immunocompetent) lung infection model. The note with it: immunocompetent mice, single intraperitoneal dose 15 mg/kg three hours post-infection, 100 hours.
[6] abbreviates: numbers in parentheses are molar equivalents.

What is called CC50 is the concentration at which the toxic effect on the cells reaches its halfway point. In turn, “GGGRGLRRLGRKIAHGVKKYGPTVLRIIKKYG [Peptide P294]” yielded a CC50 in the data set “in vitro” of 120 µg/mL.
Regarding cathelicidin-BF, the “potency against P. aeruginosa” value with P. aeruginosa was “potent MIC values against multiple P. aeruginosa strains”. For the same molecule, in the data set on human red blood cells [1], the hemolytic activity result is “low hemolytic activity”. For the same molecule, the “cytotoxic activity against mammalian cells” value with 293T is recorded as “inability to kill mammalian cells”.
Take “GGGKLLRKLKKSVKKRAKELLKKPRVIGVSIPL [Peptide P369]”: the “potency against P. aeruginosa” value with P. aeruginosa is reported as “more potent peptide”.
On to “GGGHTASDAAAAAALTAANAAAAAAASMA [Peptide P292]”, for which the “MIC Eco 25922” value against Eco 25922 is given as >128 μg,/ml. In addition, in the data set on Pae 27853, the “MIC Pae 27853” value was >128 μg,/ml. In addition, in the data set on Pae 39324, the “MIC Pae 39324” value is on record as >128 μg,/ml. Further, in [2], the cytotoxic concentration (CC50) was determined as 250 µg/mL. For the same molecule, the “MIC Sau 29213” value in the data set with Sau 29213 is given as >128 μg,/ml.
With `CC[C@@H](C)[C@@H](NC(=O)[C@H](NC(=O)[C@@H](CCCNC(=N)N)NC(=O)[C@H]1CCCN1C(=O)[C@@H](CCCCN)NC(=O)[C@@H](CCCCN)NC(=O)[C@@H](Cc1ccccc1)NC(=O)[C@@H](Cc1ccccc1)NC(=O)[C@@H](CCC(=O)O)NC(=O)[C@@H](CCCCN)NC(=O)[C@@H](C)NC(=O)[C@@H](CCCNC(=N)N)NC(=O)[C@@H](CCCCN)NC(=O)[C@@H](CCCCN)NC(=O)[C@H](NC(=O)[C@@H](CO)NC(=O)[C@@H](CCCCN)NC(=O)[C@@H](CCCCN)NC(=O)[C@@H](CC(C)C)NC(=O)[C@@H](CCCCN)NC(=O)[C@@H](CCCNC(=N)N)NC(=O)[C@@H](Cc1ccccc1)NC(=O)[C@@H](Cc1ccccc1)NC(=O)[C@@H](CCCCN)NC(=O)CNC(=O)CNC(=O)CN)C(C)C)C(C)C)C(=O)NCC(=O)N[C@@H](C(=O)N[C@H](CO)C(=O)N[C@@H](C(=O)N1CCC[C@@H]1C(=O)N[C@H](Cc1ccccc1)C(=O)O)[C@H](C)CC)C(C)C` [Peptide D297] (H-GGG[dK][dF][dF][dR][dK][dL][dK][dK][dS][dV][dK][dK][dR][dA][dK][dE][dF][dF][dK][dK][dP][dR][dV][dI]G[dV][dS][dI][dP][dF]-OH), the hemolytic activity result with human red blood cells [1] is “low hemolytic and cytotoxic activity”. The serum stability result in data set [3] was “stable in serum”; in data set [3] (listed as (D)-P297), “more stable than (L)-P297”. Besides, the “cytotoxic activity against mammalian cells” value with 293T was “low hemolytic and cytotoxic activity”.
In the case of `CC(C)(O/N=C(\C(=O)N[C@@H]1C(=O)N2C(C(=O)[O-])=C(C[n+]3ccccc3)CS[C@H]12)c1csc(N)n1)C(=O)O` [Ceftazidime], the “Hemolysis MLC/MIC” value in the data set with human red blood cells [4] was determined as 16. Besides, in the data set on human red blood cells [4], the “Hemolysis PLC/MIC” value was found to be 8. Besides, the antibiotic resistance phenotype entry is “S” with P. aeruginosa BAA-2114; “S” in the data set with P. aeruginosa BAA-2108; “S” in the data set on P. aeruginosa BAA-2110; “S” in the data set with P. aeruginosa BAA-2111; “S” in the data set on P. aeruginosa BAA-2109; “I/R” with P. aeruginosa BAA-2113. Besides, the antibiotic resistance phenotype entry in the data set on P. aeruginosa BAA-2112 was “S”. The “Human Serum hsMIC/MIC” value in data set [5] turned out to be 1. Further, in the data set on Eco 25922, the “MIC Eco 25922” value is recorded as 0.25 μg,/ml. For the same molecule, the “MIC Eco 25922, molar equivalents” value in the data set on Eco 25922 (setting [6]) is “(0.5)”. Also, in the data set on Pae 27853, the “MIC Pae 27853” value is 1 μg,/ml. Further, the “MIC Pae 27853, molar equivalents” value with Pae 27853 (setting [6]) is listed as “(1.8)”. The “MIC Pae 39324” value with Pae 39324 is 1 μg,/ml. Further, the “MIC Pae 39324, molar equivalents” value with Pae 39324 (setting [6]) was “(1.8)”. The molecule further showed a CC50 in data set [2] (Cytotox CC50, concentration at which 50% cytotoxicity of mammalian cells is observed) of 550 µg/mL (≈ 1010 µM). For the same molecule, the “MIC Sau 29213” value against Sau 29213 is on record as 4 μg,/ml. Besides, in the data set on Sau 29213 (setting [6]), the “MIC Sau 29213, molar equivalents” value is recorded as “(7.3)”.

B1: actoxumab-D297: sham-conjugate prepared using a non-P. aeruginosa targeting antibody (actoxumab) (conjugate, chains of the INN, looked up)
VH: QVQLVESGGGVVQPGRSLRLSCAASGFSFSNYGMHWVRQAPGKGLEWVALIWYDGSNEDYTDSVKGRFTISRDNSKNTLYLQMNSLRAEDTAVYYCARWGMVRGVIDVFDIWGQGTVVTVSS
VL: DIQMTQSPSSVSASVGDRVTITCRASQGISSWLAWYQHKPGKAPKLLIYAASSLQSGVPSRFSGSGSGTDFTLTISSLQPEDFATYYCQQANSFPWTFGQGTKVEIK
modifications: D297 payload; sham conjugate
Consider B1, for which the survival result in the data set on P. aeruginosa PA14 is “no survival benefit”.
